Activity calls are given as the source filed them.
Assays:
[1] = viability loss in THP-1 monocytes – THP-1 cells, cytotoxicity control for Vif-APOBEC3G degradation inhibitor project, dose response (AID 1117359); type: functional; conditions: THP-1
Prothrombin = Prothrombin (Homo sapiens, UniProt P00734); assay: Thrombin 1536 HTS Dose Response Confirmation. [Related pubchem assays: 1046 (Thrombin 1536 HTS; hits were confirmed in this assay)]; type: functional
H4 = assay: Luminescence Cell-Based Dose Response HTS to Identify Activators of 5'UTR Stem-Loop Driven Prion Protein mRNA Translation in H4 Neuroglioblastoma Cells. [Related pubchem assays: 1829 (Project Summary), 1814 (Primary HTS)]; type: functional; conditions: Homo sapiens
[2] = Luminescence Cell-Based Dose Response HTS to Identify Activators of Luciferase Translation or Activity in H4 […] Cells. [Related pubchem assays: 1829 (Project Summary), 1814 (Primary HTS)]; type: functional
[3] = biological target: FAD-linked sulfhydryl oxidase ALR (Homo sapiens, UniProt P55789); assay: ALR-catalysed DTT oxidation blockers – biochemical, H2O2 detection, luminescence, cherry-pick, dose response (AID 493248)
FAD-linked sulfhydryl oxidase ALR, sequence (P55789 whole entry): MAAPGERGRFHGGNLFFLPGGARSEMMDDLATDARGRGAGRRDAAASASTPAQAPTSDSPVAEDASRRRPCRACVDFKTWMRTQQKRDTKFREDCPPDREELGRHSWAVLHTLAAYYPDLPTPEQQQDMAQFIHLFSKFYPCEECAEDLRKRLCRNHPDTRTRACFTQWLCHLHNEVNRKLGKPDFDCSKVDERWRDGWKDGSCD

[4] = biological target: T1, Rac GTPase-activating protein 1 (Homo sapiens, UniProt Q9H0H5); assay: blockers of MgcRacGAP-driven Rac1 GTP hydrolysis – biochemical, ADP Hunter fluorescence, primary and confirmatory, confirmation (AID 624330); type: functional
T1 sequence (Q9H0H5 whole entry): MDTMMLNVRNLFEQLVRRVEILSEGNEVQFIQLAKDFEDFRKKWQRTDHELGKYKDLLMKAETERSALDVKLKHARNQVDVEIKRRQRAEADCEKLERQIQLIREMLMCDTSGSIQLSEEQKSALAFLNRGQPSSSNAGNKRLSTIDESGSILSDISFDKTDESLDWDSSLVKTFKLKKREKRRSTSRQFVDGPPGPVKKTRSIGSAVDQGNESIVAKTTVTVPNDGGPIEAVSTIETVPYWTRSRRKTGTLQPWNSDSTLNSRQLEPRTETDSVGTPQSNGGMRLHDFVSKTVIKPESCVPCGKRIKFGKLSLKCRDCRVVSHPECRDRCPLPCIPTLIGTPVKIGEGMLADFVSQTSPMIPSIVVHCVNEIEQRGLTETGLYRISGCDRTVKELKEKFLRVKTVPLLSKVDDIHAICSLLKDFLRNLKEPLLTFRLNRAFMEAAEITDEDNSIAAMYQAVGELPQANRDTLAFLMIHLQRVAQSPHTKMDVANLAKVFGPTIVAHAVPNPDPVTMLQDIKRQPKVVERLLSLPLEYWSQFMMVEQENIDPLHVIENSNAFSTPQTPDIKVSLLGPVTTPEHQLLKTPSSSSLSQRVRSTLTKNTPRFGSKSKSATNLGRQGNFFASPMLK

Large T antigen = Large T antigen (Simian virus 40, UniProt P03070); type: functional, Betapolyomavirus macacae;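 further: Confirmatory-stage PubChem screen for compounds that inhibit SV40 T antigen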
Large T antigen, sequence (P03070 whole entry): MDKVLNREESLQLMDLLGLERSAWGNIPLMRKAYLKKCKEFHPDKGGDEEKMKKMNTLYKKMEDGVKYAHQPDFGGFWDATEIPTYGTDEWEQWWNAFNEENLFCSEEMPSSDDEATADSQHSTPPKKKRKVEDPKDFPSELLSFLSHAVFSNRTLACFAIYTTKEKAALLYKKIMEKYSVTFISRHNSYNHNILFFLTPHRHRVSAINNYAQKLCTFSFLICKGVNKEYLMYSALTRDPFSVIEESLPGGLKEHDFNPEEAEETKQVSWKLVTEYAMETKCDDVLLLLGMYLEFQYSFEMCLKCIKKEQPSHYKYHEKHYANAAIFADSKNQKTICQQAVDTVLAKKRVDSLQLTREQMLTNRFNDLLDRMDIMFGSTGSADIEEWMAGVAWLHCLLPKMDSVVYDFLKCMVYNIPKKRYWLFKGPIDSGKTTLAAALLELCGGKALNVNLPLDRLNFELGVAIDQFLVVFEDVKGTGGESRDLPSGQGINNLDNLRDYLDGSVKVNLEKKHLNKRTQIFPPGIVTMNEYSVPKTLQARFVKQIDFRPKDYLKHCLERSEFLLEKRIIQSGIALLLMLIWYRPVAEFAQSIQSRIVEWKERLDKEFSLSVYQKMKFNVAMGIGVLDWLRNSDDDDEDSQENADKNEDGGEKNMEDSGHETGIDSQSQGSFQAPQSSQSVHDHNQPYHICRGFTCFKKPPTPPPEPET

[5] = biological target: Peroxisome proliferator-activated receptor gamma/Nuclear receptor coactivator 3 (Homo sapiens, UniProt P37231); assay: TR-FRET dose response biochemical High Throughput Screening assay for agonists of the steroid receptor coactivator 3 (SRC-3) recruitment by the peroxisome proliferator-activated receptor gamma (PPAR gamma): non-selective agonists. [Related pubchem assays: 1301 (Confirmation screen.), 1048 (Primary screen.)]; type: functional
Peroxisome proliferator-activated receptor gamma/Nuclear receptor coactivator 3, sequence (P37231 whole entry): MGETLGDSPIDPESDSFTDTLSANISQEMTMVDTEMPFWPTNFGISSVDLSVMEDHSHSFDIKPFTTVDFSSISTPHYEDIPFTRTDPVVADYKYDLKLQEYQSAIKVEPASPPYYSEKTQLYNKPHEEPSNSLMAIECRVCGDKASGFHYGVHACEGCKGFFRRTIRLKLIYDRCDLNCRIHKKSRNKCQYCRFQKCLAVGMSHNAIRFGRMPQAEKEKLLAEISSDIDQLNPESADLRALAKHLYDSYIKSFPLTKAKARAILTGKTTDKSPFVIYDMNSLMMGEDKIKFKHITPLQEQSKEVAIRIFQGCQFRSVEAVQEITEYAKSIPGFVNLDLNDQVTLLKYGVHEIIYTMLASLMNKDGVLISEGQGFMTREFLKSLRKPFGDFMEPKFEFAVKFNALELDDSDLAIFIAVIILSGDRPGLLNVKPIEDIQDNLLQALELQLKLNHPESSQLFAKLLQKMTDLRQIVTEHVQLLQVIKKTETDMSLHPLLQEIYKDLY
Peroxisome proliferator-activated receptor gamma/Nuclear receptor coactivator 3, sequence (Q9Y6Q9 whole entry, further chain): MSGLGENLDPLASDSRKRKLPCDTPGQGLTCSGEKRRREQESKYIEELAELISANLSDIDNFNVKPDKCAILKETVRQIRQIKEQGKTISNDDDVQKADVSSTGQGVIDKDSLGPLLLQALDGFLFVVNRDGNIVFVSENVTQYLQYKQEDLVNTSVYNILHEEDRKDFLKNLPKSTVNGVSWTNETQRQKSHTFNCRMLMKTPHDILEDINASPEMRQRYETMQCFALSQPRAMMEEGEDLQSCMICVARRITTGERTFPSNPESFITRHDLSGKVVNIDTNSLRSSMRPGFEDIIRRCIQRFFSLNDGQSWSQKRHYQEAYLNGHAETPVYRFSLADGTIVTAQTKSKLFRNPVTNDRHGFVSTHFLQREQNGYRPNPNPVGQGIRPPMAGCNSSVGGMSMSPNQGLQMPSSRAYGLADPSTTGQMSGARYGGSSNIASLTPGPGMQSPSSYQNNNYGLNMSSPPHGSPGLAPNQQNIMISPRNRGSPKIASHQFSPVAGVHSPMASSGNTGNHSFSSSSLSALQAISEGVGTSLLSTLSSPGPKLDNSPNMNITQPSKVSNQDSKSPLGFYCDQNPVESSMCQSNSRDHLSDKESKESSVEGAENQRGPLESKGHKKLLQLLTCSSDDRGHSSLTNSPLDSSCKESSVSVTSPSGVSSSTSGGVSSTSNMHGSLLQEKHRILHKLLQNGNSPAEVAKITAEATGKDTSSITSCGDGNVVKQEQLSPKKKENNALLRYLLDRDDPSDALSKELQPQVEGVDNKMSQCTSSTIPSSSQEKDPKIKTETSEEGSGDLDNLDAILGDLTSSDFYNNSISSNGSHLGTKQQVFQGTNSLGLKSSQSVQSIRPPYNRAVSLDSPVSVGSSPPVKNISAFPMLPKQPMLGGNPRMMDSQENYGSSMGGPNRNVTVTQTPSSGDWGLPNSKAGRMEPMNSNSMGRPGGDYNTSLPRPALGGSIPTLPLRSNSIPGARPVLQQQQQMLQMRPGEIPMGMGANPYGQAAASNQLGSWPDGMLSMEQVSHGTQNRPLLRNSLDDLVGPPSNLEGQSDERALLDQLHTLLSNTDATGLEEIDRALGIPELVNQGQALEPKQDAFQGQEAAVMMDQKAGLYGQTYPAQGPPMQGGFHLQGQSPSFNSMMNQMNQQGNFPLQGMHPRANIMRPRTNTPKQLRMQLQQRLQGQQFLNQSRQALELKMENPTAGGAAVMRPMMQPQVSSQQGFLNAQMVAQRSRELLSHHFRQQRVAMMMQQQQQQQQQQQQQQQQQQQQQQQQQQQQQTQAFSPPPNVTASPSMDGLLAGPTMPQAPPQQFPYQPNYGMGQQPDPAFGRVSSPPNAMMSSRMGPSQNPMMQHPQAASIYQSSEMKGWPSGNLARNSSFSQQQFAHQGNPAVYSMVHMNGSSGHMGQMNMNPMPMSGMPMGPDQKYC

[6] = biological target: Peroxisome proliferator-activated receptor gamma/Nuclear receptor coactivator 2 (Homo sapiens, UniProt P37231); assay: (§1) TR-FRET dose response biochemical High Throughput Screening assay for agonists of the steroid receptor coactivator 2 (SRC-2) recruitment by the peroxisome proliferator-activated receptor gamma (PPAR gamma): non-selective agonists. [Related pubchem assays: 1297, 1032 ]; type: functional
[7] = biological target: Peroxisome proliferator-activated receptor gamma/Nuclear receptor coactivator 1 (Homo sapiens, UniProt P37231); assay: as §1, with “1 (SRC-1)” for “2 (SRC-2)”, “assays (depositor defined):AID1300, AID1808, AID504735, AID631]” for “assays: 1297, 1032 ]”; type: protein assay
[8] = biological target: Eukaryotic translation initiation factor 4E (Mus musculus, UniProt P63073); assay: blockers of eIF4G binding by eIF4E – biochemical, TR-FRET, dose response (AID 855); type: functional;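 further: potency for disrupting eIF4E binding to eIF4GI seen as loss of FRET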
Eukaryotic translation initiation factor 4E, sequence (P63073 whole entry): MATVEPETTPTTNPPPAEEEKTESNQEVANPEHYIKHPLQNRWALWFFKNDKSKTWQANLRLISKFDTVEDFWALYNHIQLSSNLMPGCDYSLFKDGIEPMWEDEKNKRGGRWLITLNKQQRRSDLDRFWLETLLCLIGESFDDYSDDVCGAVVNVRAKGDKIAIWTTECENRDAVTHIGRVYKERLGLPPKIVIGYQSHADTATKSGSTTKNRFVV

[9] = HEK-293T viability loss after treatment – luminescence, T-cell screen hits, cytotoxicity control for TCR NF-kB inhibitor project, dose response (AID 489026); type: functional, cell-based;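 further: cells exposed to compound about 14 hours before the viability readout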
[10] = biological target: T2, Histone-lysine N-methyltransferase NSD2 (Homo sapiens, UniProt O96028); type: biochemical
T2 sequence (O96028 whole entry): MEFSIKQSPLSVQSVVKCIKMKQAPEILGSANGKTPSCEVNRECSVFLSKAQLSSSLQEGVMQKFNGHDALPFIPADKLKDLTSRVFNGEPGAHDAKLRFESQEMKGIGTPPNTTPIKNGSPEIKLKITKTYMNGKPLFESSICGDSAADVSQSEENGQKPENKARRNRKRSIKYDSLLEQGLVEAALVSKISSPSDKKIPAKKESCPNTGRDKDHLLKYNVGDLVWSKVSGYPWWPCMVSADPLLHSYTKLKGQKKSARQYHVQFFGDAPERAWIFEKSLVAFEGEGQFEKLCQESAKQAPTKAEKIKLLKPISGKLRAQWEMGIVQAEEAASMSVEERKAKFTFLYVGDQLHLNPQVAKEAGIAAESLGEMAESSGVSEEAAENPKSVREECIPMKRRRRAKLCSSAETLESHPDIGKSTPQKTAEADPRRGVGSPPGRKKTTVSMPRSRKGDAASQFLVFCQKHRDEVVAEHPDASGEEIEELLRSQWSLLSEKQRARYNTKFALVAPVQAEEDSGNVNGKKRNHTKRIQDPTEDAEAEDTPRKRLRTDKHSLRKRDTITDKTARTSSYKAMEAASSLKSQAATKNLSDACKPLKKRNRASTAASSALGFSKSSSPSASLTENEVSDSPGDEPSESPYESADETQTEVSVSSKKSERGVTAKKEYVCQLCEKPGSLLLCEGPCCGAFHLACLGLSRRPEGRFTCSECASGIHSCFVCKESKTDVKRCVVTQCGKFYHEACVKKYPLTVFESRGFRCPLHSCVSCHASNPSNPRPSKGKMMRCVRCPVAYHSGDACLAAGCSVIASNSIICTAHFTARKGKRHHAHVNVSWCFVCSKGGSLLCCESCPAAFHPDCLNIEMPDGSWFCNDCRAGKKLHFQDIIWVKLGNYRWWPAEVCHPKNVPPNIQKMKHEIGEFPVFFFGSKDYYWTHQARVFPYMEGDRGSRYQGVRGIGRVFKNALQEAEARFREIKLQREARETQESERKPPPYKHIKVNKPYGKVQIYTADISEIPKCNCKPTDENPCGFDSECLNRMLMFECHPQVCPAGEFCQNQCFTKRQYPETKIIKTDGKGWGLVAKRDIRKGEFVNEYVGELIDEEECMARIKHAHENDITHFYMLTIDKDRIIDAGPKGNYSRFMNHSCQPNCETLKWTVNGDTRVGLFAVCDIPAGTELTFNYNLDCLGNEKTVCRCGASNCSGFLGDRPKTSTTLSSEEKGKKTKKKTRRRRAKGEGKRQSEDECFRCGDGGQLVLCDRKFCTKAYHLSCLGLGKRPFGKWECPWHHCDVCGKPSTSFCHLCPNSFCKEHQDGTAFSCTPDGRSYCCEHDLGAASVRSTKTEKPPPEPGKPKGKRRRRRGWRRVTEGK

Leucine aminopeptidase = biological target: T3, Leucine aminopeptidase (Plasmodium falciparum 3D7, UniProt Q8IL11); assay: P. falciparum M17LAP inhibitors, primary screen, biochemical, fluorogenic H-Leu-NHMec substrate, 1536-well (AID 1619); type: functional
T3 sequence (Q8IL11 whole entry): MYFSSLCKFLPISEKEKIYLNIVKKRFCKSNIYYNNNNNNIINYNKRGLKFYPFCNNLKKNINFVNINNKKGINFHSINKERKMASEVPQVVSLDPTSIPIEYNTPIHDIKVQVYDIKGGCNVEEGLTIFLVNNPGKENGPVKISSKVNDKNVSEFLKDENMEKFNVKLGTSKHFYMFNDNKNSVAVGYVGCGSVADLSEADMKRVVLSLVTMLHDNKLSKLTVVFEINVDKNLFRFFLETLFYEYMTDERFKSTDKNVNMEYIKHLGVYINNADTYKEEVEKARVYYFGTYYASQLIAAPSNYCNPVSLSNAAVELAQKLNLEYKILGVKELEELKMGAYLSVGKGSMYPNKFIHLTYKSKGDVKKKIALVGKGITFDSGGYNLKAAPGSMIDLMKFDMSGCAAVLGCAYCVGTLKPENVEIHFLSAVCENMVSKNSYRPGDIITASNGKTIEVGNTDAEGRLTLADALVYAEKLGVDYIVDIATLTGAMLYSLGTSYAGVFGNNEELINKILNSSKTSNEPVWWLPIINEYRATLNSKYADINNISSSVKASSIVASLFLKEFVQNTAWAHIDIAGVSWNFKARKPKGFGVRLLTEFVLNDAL

[11] = biological target: Induced myeloid leukemia cell differentiation protein Mcl-1 (Homo sapiens, UniProt Q07820); type: functional
Induced myeloid leukemia cell differentiation protein Mcl-1, sequence (Q07820 whole entry): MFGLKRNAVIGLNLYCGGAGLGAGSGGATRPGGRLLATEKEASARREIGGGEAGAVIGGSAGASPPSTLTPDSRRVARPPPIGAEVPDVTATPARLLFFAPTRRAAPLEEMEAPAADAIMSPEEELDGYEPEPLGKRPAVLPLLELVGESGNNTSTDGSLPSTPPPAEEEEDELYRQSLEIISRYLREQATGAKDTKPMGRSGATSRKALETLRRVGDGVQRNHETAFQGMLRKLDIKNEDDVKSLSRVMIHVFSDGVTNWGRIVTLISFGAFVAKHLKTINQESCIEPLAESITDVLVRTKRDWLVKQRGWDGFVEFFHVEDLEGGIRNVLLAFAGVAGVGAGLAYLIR

## CC(C(=O)NCC1CCCCC1)N(C)Cc1ccc(Br)cc1 (stereo not given)
[1]
  CC50: > 40 µM (active)

## O=C(Cc1ccccc1)n1nc(-c2ccccc2)nc1NCc1ccco1
Prothrombin
  IC50: 0.1 µM (active)

## CCCCn1nnc(N(C(=O)c2cccs2)C(=O)c2cccs2)n1
H4
  EC50: > 120 µM (not active)
Prothrombin
  IC50: 0.88 µM (active)
[2]
  EC50: 12.6 µM (active)

## O=C1CS/C(=N\c2ccc(O)cc2)N1c1ccc(O)cc1
[3]
  AC50: 3.26 µM (active)
[4]
  IC50: 51.9 µM (active)
Large T antigen
  IC50: 11.4 µM (active)

## CSc1cnn(-c2ccccc2)c(=O)c1SC
[5]
  EC50: > 79.4 µM (not active)
[6]
  EC50: 1.75 µM (active)
[7]
  EC50: 1.97 µM (active)

## Oc1n[nH]c(CSCc2ccccc2Cl)n1
[8]
  IC50: > 64 µM (inactive)

## COc1ccccc1-c1nnc2n1N=C(c1ccc(O)c(O)c1)CS2
[9]
  IC50: > 80 µM (inactive)
[10]
  AC50: 12.4 µM (active)
Leucine aminopeptidase
  IC50: 39.2 µM (active)
[3]
  AC50: 1.97 µM (active)

## Cc1ccc(CN(Cc2ccccc2)C(S)=NCC(=O)N2CCC3(CC2)OCCO3)o1
[8]
  IC50: 50 µM (inactive)

## N#Cc1cc(-c2ccccc2)nn1-c1ccccc1
[8]
  IC50: > 64 µM (inactive)
[11]
  IC50: 1.44 µM (active)

## CCN(CC)CCNC(=O)Cc1nn(Cc2ccccc2)c(=O)c2ccccc12
[10]
  AC50: > 20 µM (inactive)
